# Experiment: in vitro
# Settings: human, hela cells, % viability
row,Compound,"viability at 28.5 h, 10 µM"
1,O=S(=O)(c1ccc(-c2ccc(S(=O)(=O)N3CCOCC3)cc2)cc1)N1CCOCC1 [CBK261366],103%
2,O=C(Cc1ccsc1)N1CCC2(CCN(Cc3ccccc3)CC2)C1 [CBK136742],89.8%
3,Cc1ccccc1C(c1cnccn1)N(C)C(=O)C1CCN(S(=O)(=O)c2cn(C)cn2)CC1 (centres unmarked) [CBK060264],93.1%
4,Cc1ccc(Cl)cc1Nc1nc2nc(C)c(NCC3CC3)cn2n1 [CBK008522],105%
5,CCOc1ccc2[nH]c(C(=O)NC3CCCOC3)cc2c1 (centres unmarked) [CBK283114],101%
6,Oc1cc2cccnc2nc1-c1ccccc1 [CBK073697],115%
7,Cn1cc(C(=O)NC(Cc2cccs2)c2ccccn2)ccc1=O (centres unmarked) [CBK285209],112%
8,Cc1ccc(NC(=O)c2cc(N3C(=O)c4ccc(C(=O)O)cc4C3=O)ccc2N2CCCCC2)cc1 [CBK265274],99.9%
9,Cn1nc(-c2ccc(S(=O)(=O)NCCN3CCNC3=O)s2)cc1C(F)(F)F [CBK062610],91.6%
10,O=CN1CCc2c([nH]c3cc(F)ccc23)C12CCN(CCc1cccs1)CC2 [CBK040312],81.2%
11,NC(=O)c1cccc(-c2nccnc2NCCO)c1 [CBK088993],97%
12,C1=Nn2c(nnc2-c2ccncc2)SC(c2ccccc2)=C1 [CBK288535],101%
13,Cn1c(-c2ccccc2)c(C(=O)C(N)=O)c2ccccc21 [CBK288465],104%
14,Cn1nc2c(cc1=O)CN(C(=O)c1ccoc1)CC2 [CBK304330],119%
15,O=C1NCCN1CCOc1nccnc1-c1cnn(Cc2ccccc2)c1 [CBK107094],86.3%
16,O=[N+]([O-])c1ccccc1S(=O)(=O)N1CCN(S(=O)(=O)Cc2ccccc2)CC1 [CBK264230],96.9%
17,Cc1nn(-c2ccc(F)cc2)c(C)c1C(=O)NCc1ccnc(N2CCCC2)c1 [CBK296700],93.3%
18,CC(C)OC(=O)N1CCC(CNc2ncc(-c3ccc(S(C)(=O)=O)cc3)cn2)CC1 [CBK165367],99.1%
19,Cc1ncsc1CCOc1cc(NC(C)C)ncn1 [CBK115884],84.8%
20,Cc1csc2c(C3CCN(C(=O)c4ccccn4)CC3)nc(C)n12 [CBK285244],77.4%
21,COc1ccccc1-c1nnc(SCC(=O)O)n1-c1ccccc1 [CBK116149],89.5%
22,O=C(NCc1cccnc1)c1cc(Br)cnc1NCCOc1ccccc1 [CBK076265],99.2%
23,CC(C)Nc1nccnc1OCCN1CCOCC1 [CBK113410],104%

row,Compound,"viability at 28.5 h, 10 µM"
1,CCCCNC(=S)NC1CC[C@@]2(c3ccc(Br)cc3)CCN(C)[C@H]2C1 (some centres unmarked) [CBK003781],111%
2,Cc1nc(C(=O)N2CCn3nc(C(O)Cc4ccccc4)cc3C2)cs1 (centres unmarked) [CBK307214],98.5%
3,O=[N+]([O-])c1ccccc1/C=C/CN1CCN(CCO)CC1 [CBK261863],85.8%
4,Cc1cc(O)cc(=O)n1Cc1ccccn1 [CBK291159],91.8%
5,COc1ccc2c(c1)cc(C(=O)NCCN1CCCCC1CO)n2C (centres unmarked) [CBK306621],114%
6,CCCNC(=O)Cn1nc(C)n2c(cc3ccsc32)c1=O [CBK284061],78.2%
7,O=C(O)CCC(=O)NN1C(=O)c2ccccc2NC1c1ccc(F)cc1 (centres unmarked) [CBK286905],84%
8,Cc1ccnc(SCC(=O)c2cc(C)n(C3CC3)c2C)n1 [CBK304686],97.6%
9,COc1ccc(Br)cc1C(=O)NC(=S)Nc1cc(Cl)c(O)c(Cl)c1 [CBK265979],89.6%
10,O=C(O)c1c(Cl)c(C(=O)O)c(C(=O)O)c(Cl)c1C(=O)O [CBK261177],96.8%
11,O=C(Nc1cccc(C=Cc2ccccn2)c1)c1c[nH]nc1-c1ccc(F)cc1 [CBK295335],78%
12,CCOc1c(Br)cc(CNc2nc[nH]n2)cc1OC [CBK268009],104%
13,COCCn1ccnc1C1CCCN(C(=O)COc2ccccc2Cl)C1 (centres unmarked) [CBK307211],90.2%
14,Cn1ncc(N2CCC(CNC(=O)COc3ccc(Cl)cc3)C2)cc1=O (centres unmarked) [CBK306517],79%
15,COc1ccc([C@@]23CC[C@@H](NC(=O)c4ccc(Br)c(C)c4)C[C@@H]2N(C)CC3)cc1OC [CBK076656T],81.2%
16,Cc1ccc(Cl)c(OC(C)C(=O)N2CCCC(C(N)=O)C2)c1 (centres unmarked) [CBK304936],99.3%
17,O=C(Cc1ccc(Cl)c(Cl)c1)NC(c1ccccc1)c1ccccn1 (centres unmarked) [CBK144110],92.8%
18,Cc1ccc(S(=O)(=O)N(C)CCCC(=O)n2cnc3ccccc32)cc1 [CBK264457],104%
19,CN1CCN(c2nc3c(N)ncn(CC(O)CO)c-3n2)CC1 (centres unmarked) [CBK262571],108%
20,O=C(NCCc1c[nH]c2ccccc12)c1cc2c(ccc3ccccc32)oc1=O [CBK264550],91.5%
21,Cc1ccc(C(=O)O)cc1NC(=O)CSc1nc2scc(C3CC3)c2c(=O)n1-c1ccccc1 [CBK297481],107%
22,O=C(O)CCN1C(=O)c2ccc(NC(=O)Cc3cccs3)cc2C1=O [CBK268240],95.9%
23,CC(C)(C)NS(=O)(=O)c1ccc(OCC(=O)NCc2ccncc2)cc1 [CBK266434],97.3%

row,Compound,"viability at 28.5 h, 10 µM"
1,COc1cccc(C2(NC(=O)c3c(C)noc3C)CCCC2)c1 [CBK283659],98.1%
2,O=C(COc1ccc(Br)cc1)Nc1ccc(CN2CCCCC2)cc1 [CBK266181],99.5%
3,O=C(O)/C=C/c1cccc(-c2cn3ccnc3c(NCc3cccnc3)n2)c1 [CBK066283],98.8%
4,COc1ccc(C2OCCN2C(C)=O)cc1 (centres unmarked) [CBK004536],80.8%
5,COc1ncc(-c2nccnc2OC2CCCCC2)c(OC)n1 [CBK106745],90.8%
6,COCCNC(=O)NCCCn1c(-c2ccncc2)nc2cccnc21 [CBK288581],98.6%
7,COc1cc(C2SCC(=O)Nc3c2c(-c2ccccc2)nn3-c2ccccc2)cc(OC)c1OC (centres unmarked) [CBK265025],108%
8,O=C1Nc2ccc([N+](=O)[O-])cc2C1(O)N1CCCCC1 (centres unmarked) [CBK262496],80.6%
9,COCc1ccc(C(=O)N2CCC(Cc3ccccc3-c3cccs3)(C(N)=O)CC2)cc1 [CBK286276],102%
10,CCCCOc1ccc(C=Cc2nc3sc(C(=O)O)c(C)c3c(=O)[nH]2)cc1 [CBK297524],86.5%
11,O=C(O)c1sccc1S(=O)(=O)NCc1ccc(Cn2cccn2)cc1 [CBK296707],99.4%
12,Cc1cc2c(cc3c(=O)n(CC(=O)NC(C)(C)C)nc(C)n32)s1 [CBK284070],84.1%
13,COCCN1C(=O)C2(CC(=O)N(CCCN3C(=O)CCC3=O)C2=O)c2ccccc21 (centres unmarked) [CBK075333],117%
14,Cc1ccc(C2=CCN(CC(=O)N(C)C3CCCCC3)CC2)o1 [CBK283633],91.6%
15,Cc1nnc(Nc2ccc(F)cc2)c2ccccc12 [CBK287873],93.9%
16,Cc1nc(SCCC(=O)Nc2ccccc2C#N)nc2cc3c(cc12)CCC3 [CBK268812],90.2%
17,CN1CCC(=NNC(=O)c2ccc(CN3CCOCC3)cc2)CC1 [CBK262749],86.6%
18,Nc1cc2ccccc2c(-c2ccsc2)n1 [CBK085710],85.3%
19,CC(C)(C)NC(=O)CSc1nnc(Cc2cccc3ccccc23)n1-c1ccccc1 [CBK266039],118%
20,O=C(NCCN1CCOCC1)N(c1ccccc1)c1ccccc1 [CBK270057],92.8%
21,Clc1ccc(COc2cccc(CNCCN3CCOCC3)c2)cc1 [CBK278227C],85%
22,CC(C)CC(=O)N1CCCC(n2c(=O)oc3ccc(Cl)cc32)C1 (centres unmarked) [CBK282891],89.3%
23,Cc1nn(CC(=O)N2CCC(C)CC2)c(=O)c2cc3ccsc3n12 [CBK284081],91.3%

row,Compound,"viability at 28.5 h, 10 µM"
1,COCCn1cc(C(=O)N2CCCC2c2ccncc2)c2ccccc21 (centres unmarked) [CBK305286],91.8%
2,CC(C)c1ccc(/C=C/C(=O)NCc2ccc(NS(C)(=O)=O)cc2)cc1 [CBK161512],97.8%
3,NC[C@H]1CC[C@H](C(=O)N2CCC(c3ccncc3)CC2)CC1 [CBK283332],110%
4,COc1cc(CNc2cc(-c3ccc4c(c3)OCO4)ncn2)cc(OC)c1OC [CBK037822],98.9%
5,CCOC1(c2ccccc2)N=C2C(Cl)=CC(C(F)(F)F)=CN2N=C1c1ccccc1 (centres unmarked) [CBK020634],91.4%
6,CCOc1ccccc1NC(=O)CCCN1C(=O)c2ccccc2C1=O [CBK265608],107%
7,Cn1c(=O)n(C)c2cc(NC(=O)CSc3nc(Nc4ccccc4)nc(N4CCOCC4)n3)ccc21 [CBK269041],111%
8,O=C(Cn1ncc2ccccc2c1=O)NNC(=S)NC1CC2CCC1C2 (centres unmarked) [CBK267892],106%
9,O=C(Nc1nc2ccc(Br)cc2s1)C1CC1 [CBK026046],108%
10,CCCN1C(=O)COc2ccc(-c3noc(-c4ccccn4)n3)cc21 [CBK288596],92.1%
11,COCCNC(=O)CSc1cc(Cl)nc(Cl)c1 [CBK020796],88.3%
12,COc1ccc(C(NC(=O)C2CCN(Cc3ccc4c(c3)OCO4)CC2)c2ccccc2C)cn1 (centres unmarked) [CBK081453T],121%
13,Cc1ccc(C2CC(=O)c3cnc(N)nc3C2)cc1 (centres unmarked) [CBK288166],92%
14,O=c1[nH]c2cc(Cl)cc(Cl)c2o1 [CBK015711],90.6%
15,CCN(NC(=O)c1ccccc1-n1cccc1)c1ccc(C)cc1 [CBK161507],110%
16,CC(=O)N1CCc2cc(-c3cc4c(C)cccn4c3)ccc21 [CBK285225],96%
17,Cc1csc(C2CN(Cc3cn(C)c(=O)n(C)c3=O)CCO2)n1 (centres unmarked) [CBK305475],86.6%
18,Cc1cccc(-c2ncc(NC(=O)Cc3cccc(Oc4ccccc4)c3)nc2-c2ccc(N)cc2)c1 [CBK037583],97.2%
19,CC(C)(C)OC(=O)NCCc1ccc(Nc2cc(-c3ccc4c(c3)OCO4)ncn2)cc1 [CBK090957],92.5%
20,N#CCCN(C(=O)Nc1ccc2c(c1)OCCO2)C1CCCCC1 [CBK156364],92.3%
